Measured values taken from ChEMBL document CHEMBL4373723 (J Med Chem, 2019).
Bridge positions count the residues as written; N and C are the ends. Square brackets hold non-standard residues; d marks the D form. Peptide text beside a SMILES is read from it. I, II: the chains in the order shown. Phe(3-Cl) = N[C@@H](Cc1cccc(Cl)c1)C(=O)O; Phe(4-Cl) = N[C@@H](Cc1ccc(Cl)cc1)C(=O)O; Phe(4-Me) = Cc1ccc(C[C@H](N)C(=O)O)cc1; Ala(cPent) = N[C@@H](CC1CCCC1)C(=O)O; Cba = N[C@@H](CC1CCC1)C(=O)O

Key:
Frizzled-7 [1] = molecular target: T1, Frizzled-7 (Homo sapiens, UniProt O75084); assay type: cell-based; details: cho
Frizzled-7 [2] = molecular target: T1, Frizzled-7; assay: biochemical; assay type: cell-based, CHO; details: read-out: Kd
Frizzled-7 [3] = molecular target: T1, Frizzled-7; details: CHO
Description: Binding affinity to recombinant human Frizzled-7 (Gln33 to Leu185 residues)/human IgG1 chimeric protein expressed in CHO cells assessed as association rate constant by SPR assay

CSCC[C@H](NC(=O)[C@@H](NC(=O)[C@H](Cc1cnc[nH]1)NC(=O)[C@H](CSSC[C@H](NC(=O)[C@H](Cc1c[nH]c2ccccc12)NC(=O)[C@H](Cc1ccccc1)NC(=O)[C@H](CCC(=O)O)NC(=O)[C@H](CC(C)C)NC(=O)[C@H](CC(=O)O)NC(=O)[C@H](CC(=O)O)NC(=O)[C@H](CO)NC(C)=O)C(=O)N[C@@H](Cc1cnc[nH]1)C(=O)N[C@H](C(=O)N[C@@H](CCSC)C(=O)N[C@@H](Cc1ccc(Cl)cc1)C(N)=O)C(C)C)NC(=O)[C@H](Cc1c[nH]c2ccccc12)NC(=O)[C@H](Cc1ccccc1)NC(=O)[C@H](CCC(=O)O)NC(=O)[C@H](CC(C)C)NC(=O)[C@H](CC(=O)O)NC(=O)[C@H](CC(=O)O)NC(=O)[C@H](CO)NC(C)=O)C(C)C)C(=O)N[C@@H](Cc1ccc(Cl)cc1)C(N)=O (I: Ac-SDDLEFWCHVM[Phe(4-Cl)]-NH2 / II: Ac-SDDLEFWCHVM[Phe(4-Cl)]-NH2; disulfide I:8-II:8) was tested, and the Kd (Frizzled-7 [1]) was 0.82 ×10⁻³ /s, the Kd (Frizzled-7 [2]) was 0.88 nM and the Ka (Frizzled-7 [3]) was 9.3 ×10⁵ /M/s.

CSCC[C@H](NC(=O)[C@@H](NC(=O)[C@H](Cc1cnc[nH]1)NC(=O)[C@H](CSSC[C@H](NC(=O)[C@H](Cc1c[nH]c2ccccc12)NC(=O)[C@H](Cc1ccccc1)NC(=O)[C@H](CCC(=O)O)NC(=O)[C@H](CC(C)C)NC(=O)[C@H](CC(=O)O)NC(=O)[C@H](CC(=O)O)NC(=O)[C@H](CO)NC(C)=O)C(=O)N[C@@H](Cc1cnc[nH]1)C(=O)N[C@H](C(=O)N[C@@H](CCSC)C(=O)N[C@@H](Cc1ccc(C)cc1)C(N)=O)C(C)C)NC(=O)[C@H](Cc1c[nH]c2ccccc12)NC(=O)[C@H](Cc1ccccc1)NC(=O)[C@H](CCC(=O)O)NC(=O)[C@H](CC(C)C)NC(=O)[C@H](CC(=O)O)NC(=O)[C@H](CC(=O)O)NC(=O)[C@H](CO)NC(C)=O)C(C)C)C(=O)N[C@@H](Cc1ccc(C)cc1)C(N)=O (I: Ac-SDDLEFWCHVM[Phe(4-Me)]-NH2 / II: Ac-SDDLEFWCHVM[Phe(4-Me)]-NH2; disulfide I:8-II:8) gave a Kd (Frizzled-7 [1]) of 0.98 ×10⁻³ /s, a Kd (Frizzled-7 [2]) of 0.97 nM and a Ka (Frizzled-7 [3]) of 10.2 ×10⁵ /M/s.

CSCC[C@H](NC(=O)[C@@H](NC(=O)[C@H](Cc1cnc[nH]1)NC(=O)[C@H](CSSC[C@H](NC(=O)[C@H](Cc1c[nH]c2ccccc12)NC(=O)[C@H](CC(C)C)NC(=O)[C@H](CCC(=O)O)NC(=O)[C@H](CC(C)C)NC(=O)[C@H](CC(=O)O)NC(=O)[C@H](CC(=O)O)NC(=O)[C@H](CO)NC(C)=O)C(=O)N[C@@H](Cc1cnc[nH]1)C(=O)N[C@H](C(=O)N[C@@H](CCSC)C(=O)N[C@@H](Cc1ccc(O)cc1)C(N)=O)C(C)C)NC(=O)[C@H](Cc1c[nH]c2ccccc12)NC(=O)[C@H](CC(C)C)NC(=O)[C@H](CCC(=O)O)NC(=O)[C@H](CC(C)C)NC(=O)[C@H](CC(=O)O)NC(=O)[C@H](CC(=O)O)NC(=O)[C@H](CO)NC(C)=O)C(C)C)C(=O)N[C@@H](Cc1ccc(O)cc1)C(N)=O (I: Ac-SDDLELWCHVMY-NH2 / II: Ac-SDDLELWCHVMY-NH2; disulfide I:8-II:8) was tested, and the Kd (Frizzled-7 [1]) was 0.6 ×10⁻³ /s, the Kd (Frizzled-7 [2]) was 0.079 nM and the Ka (Frizzled-7 [3]) was 76.5 ×10⁵ /M/s.

With CC[C@H](C)[C@H](NC(=O)[C@H](Cc1cnc[nH]1)NC(=O)[C@H](CSSC[C@H](NC(=O)[C@H](Cc1c[nH]c2ccccc12)NC(=O)[C@H](Cc1cccc(Cl)c1)NC(=O)[C@H](CCC(=O)O)NC(=O)[C@H](CC(C)C)NC(=O)[C@H](CC(=O)O)NC(=O)[C@H](CC(=O)O)NC(=O)[C@H](CO)NC(C)=O)C(=O)N[C@@H](Cc1cnc[nH]1)C(=O)N[C@H](C(=O)N[C@@H](CCSC)C(=O)N[C@@H](Cc1ccc(O)cc1)C(N)=O)[C@@H](C)CC)NC(=O)[C@H](Cc1c[nH]c2ccccc12)NC(=O)[C@H](Cc1cccc(Cl)c1)NC(=O)[C@H](CCC(=O)O)NC(=O)[C@H](CC(C)C)NC(=O)[C@H](CC(=O)O)NC(=O)[C@H](CC(=O)O)NC(=O)[C@H](CO)NC(C)=O)C(=O)N[C@@H](CCSC)C(=O)N[C@@H](Cc1ccc(O)cc1)C(N)=O (I: Ac-SDDLE[Phe(3-Cl)]WCHIMY-NH2 / II: Ac-SDDLE[Phe(3-Cl)]WCHIMY-NH2; disulfide I:8-II:8) the Kd (Frizzled-7 [1]) was 0.57 ×10⁻³ /s, the Kd (Frizzled-7 [2]) was 0.083 nM and the Ka (Frizzled-7 [3]) was 68.4 ×10⁵ /M/s.

CSCC[C@H](NC(=O)[C@@H](NC(=O)[C@H](Cc1cnc[nH]1)NC(=O)[C@H](CSSC[C@H](NC(=O)[C@H](Cc1c[nH]c2ccccc12)NC(=O)[C@H](Cc1cccc(Cl)c1)NC(=O)[C@H](CCC(=O)O)NC(=O)[C@H](CC(C)C)NC(=O)[C@H](CC(=O)O)NC(=O)[C@H](CC(=O)O)NC(=O)[C@H](CO)NC(C)=O)C(=O)N[C@@H](Cc1cnc[nH]1)C(=O)N[C@H](C(=O)N[C@@H](CCSC)C(=O)N[C@@H](Cc1ccc(O)cc1)C(N)=O)C(C)C)NC(=O)[C@H](Cc1c[nH]c2ccccc12)NC(=O)[C@H](Cc1cccc(Cl)c1)NC(=O)[C@H](CCC(=O)O)NC(=O)[C@H](CC(C)C)NC(=O)[C@H](CC(=O)O)NC(=O)[C@H](CC(=O)O)NC(=O)[C@H](CO)NC(C)=O)C(C)C)C(=O)N[C@@H](Cc1ccc(O)cc1)C(N)=O (I: Ac-SDDLE[Phe(3-Cl)]WCHVMY-NH2 / II: Ac-SDDLE[Phe(3-Cl)]WCHVMY-NH2; disulfide I:8-II:8) gave a Kd (Frizzled-7 [1]) of 0.63 ×10⁻³ /s, a Kd (Frizzled-7 [2]) of 0.1 nM and a Ka (Frizzled-7 [3]) of 66.3 ×10⁵ /M/s.

CSCC[C@H](NC(=O)[C@@H](NC(=O)[C@H](Cc1cnc[nH]1)NC(=O)[C@H](CSSC[C@H](NC(=O)[C@H](Cc1c[nH]c2ccccc12)NC(=O)[C@H](Cc1ccc(Cl)cc1)NC(=O)[C@H](CCC(=O)O)NC(=O)[C@H](CC(C)C)NC(=O)[C@H](CC(=O)O)NC(=O)[C@H](CC(=O)O)NC(=O)[C@H](CO)NC(C)=O)C(=O)N[C@@H](Cc1cnc[nH]1)C(=O)N[C@H](C(=O)N[C@@H](CCSC)C(=O)N[C@@H](Cc1ccc(O)cc1)C(N)=O)C(C)C)NC(=O)[C@H](Cc1c[nH]c2ccccc12)NC(=O)[C@H](Cc1ccc(Cl)cc1)NC(=O)[C@H](CCC(=O)O)NC(=O)[C@H](CC(C)C)NC(=O)[C@H](CC(=O)O)NC(=O)[C@H](CC(=O)O)NC(=O)[C@H](CO)NC(C)=O)C(C)C)C(=O)N[C@@H](Cc1ccc(O)cc1)C(N)=O (I: Ac-SDDLE[Phe(4-Cl)]WCHVMY-NH2 / II: Ac-SDDLE[Phe(4-Cl)]WCHVMY-NH2; disulfide I:8-II:8) gave a Kd (Frizzled-7 [1]) of 1.71 ×10⁻³ /s, a Kd (Frizzled-7 [2]) of 1.04 nM and a Ka (Frizzled-7 [3]) of 16.5 ×10⁵ /M/s.

CSCC[C@H](NC(=O)[C@@H](NC(=O)[C@H](Cc1cnc[nH]1)NC(=O)[C@H](CSSC[C@H](NC(=O)[C@H](Cc1c[nH]c2ccccc12)NC(=O)[C@H](Cc1ccccc1)NC(=O)[C@H](CCCCN)NC(=O)[C@H](CC(C)C)NC(=O)[C@H](CC(=O)O)NC(=O)[C@H](CC(=O)O)NC(=O)[C@H](CO)NC(C)=O)C(=O)N[C@@H](Cc1cnc[nH]1)C(=O)N[C@H](C(=O)N[C@@H](CCSC)C(=O)N[C@@H](Cc1ccc(O)cc1)C(N)=O)C(C)C)NC(=O)[C@H](Cc1c[nH]c2ccccc12)NC(=O)[C@H](Cc1ccccc1)NC(=O)[C@H](CCCCN)NC(=O)[C@H](CC(C)C)NC(=O)[C@H](CC(=O)O)NC(=O)[C@H](CC(=O)O)NC(=O)[C@H](CO)NC(C)=O)C(C)C)C(=O)N[C@@H](Cc1ccc(O)cc1)C(N)=O (I: Ac-SDDLKFWCHVMY-NH2 / II: Ac-SDDLKFWCHVMY-NH2; disulfide I:8-II:8) showed a Kd (Frizzled-7 [1]) of 1.33 ×10⁻³ /s, a Kd (Frizzled-7 [2]) of 0.157 nM and a Ka (Frizzled-7 [3]) of 85.6 ×10⁵ /M/s.

Work on CSCC[C@H](NC(=O)[C@@H](NC(=O)[C@H](Cc1cnc[nH]1)NC(=O)[C@H](CSSC[C@H](NC(=O)[C@H](Cc1c[nH]c2ccccc12)NC(=O)[C@H](CC(C)C)NC(=O)[C@H](CCCCN)NC(=O)[C@H](CC(C)C)NC(=O)[C@H](CC(=O)O)NC(=O)[C@H](CC(=O)O)NC(=O)[C@H](CO)NC(C)=O)C(=O)N[C@@H](Cc1cnc[nH]1)C(=O)N[C@H](C(=O)N[C@@H](CCSC)C(=O)N[C@@H](Cc1ccc(O)cc1)C(N)=O)C(C)C)NC(=O)[C@H](Cc1c[nH]c2ccccc12)NC(=O)[C@H](CC(C)C)NC(=O)[C@H](CCCCN)NC(=O)[C@H](CC(C)C)NC(=O)[C@H](CC(=O)O)NC(=O)[C@H](CC(=O)O)NC(=O)[C@H](CO)NC(C)=O)C(C)C)C(=O)N[C@@H](Cc1ccc(O)cc1)C(N)=O (I: Ac-SDDLKLWCHVMY-NH2 / II: Ac-SDDLKLWCHVMY-NH2; disulfide I:8-II:8) yielded a Kd (Frizzled-7 [1]) of 0.58 ×10⁻³ /s, a Kd (Frizzled-7 [2]) of 0.142 nM and a Ka (Frizzled-7 [3]) of 55.6 ×10⁵ /M/s.

CSCC[C@H](NC(=O)[C@@H](NC(=O)[C@H](Cc1cnc[nH]1)NC(=O)[C@H](CSSC[C@H](NC(=O)[C@H](Cc1c[nH]c2ccccc12)NC(=O)[C@H](Cc1ccccc1)NC(=O)[C@H](CCC(=O)O)NC(=O)[C@H](CC1CCCC1)NC(=O)[C@H](CC(=O)O)NC(=O)[C@H](CC(=O)O)NC(=O)[C@H](CO)NC(C)=O)C(=O)N[C@@H](Cc1cnc[nH]1)C(=O)N[C@H](C(=O)N[C@@H](CCSC)C(=O)N[C@@H](Cc1ccc(O)cc1)C(N)=O)C(C)C)NC(=O)[C@H](Cc1c[nH]c2ccccc12)NC(=O)[C@H](Cc1ccccc1)NC(=O)[C@H](CCC(=O)O)NC(=O)[C@H](CC1CCCC1)NC(=O)[C@H](CC(=O)O)NC(=O)[C@H](CC(=O)O)NC(=O)[C@H](CO)NC(C)=O)C(C)C)C(=O)N[C@@H](Cc1ccc(O)cc1)C(N)=O (I: Ac-SDD[Ala(cPent)]EFWCHVMY-NH2 / II: Ac-SDD[Ala(cPent)]EFWCHVMY-NH2; disulfide I:8-II:8) was tested, and the Kd (Frizzled-7 [1]) was 9.9 ×10⁻³ /s, the Kd (Frizzled-7 [2]) was 2.1 nM and the Ka (Frizzled-7 [3]) was 46.5 ×10⁵ /M/s.

In the case of CSCC[C@H](NC(=O)[C@@H](NC(=O)[C@H](Cc1cnc[nH]1)NC(=O)[C@H](CSSC[C@H](NC(=O)[C@H](Cc1c[nH]c2ccccc12)NC(=O)[C@H](Cc1ccccc1)NC(=O)[C@H](CCC(=O)O)NC(=O)[C@H](CC1CCC1)NC(=O)[C@H](CC(=O)O)NC(=O)[C@H](CC(=O)O)NC(=O)[C@H](CO)NC(C)=O)C(=O)N[C@@H](Cc1cnc[nH]1)C(=O)N[C@H](C(=O)N[C@@H](CCSC)C(=O)N[C@@H](Cc1ccc(O)cc1)C(N)=O)C(C)C)NC(=O)[C@H](Cc1c[nH]c2ccccc12)NC(=O)[C@H](Cc1ccccc1)NC(=O)[C@H](CCC(=O)O)NC(=O)[C@H](CC1CCC1)NC(=O)[C@H](CC(=O)O)NC(=O)[C@H](CC(=O)O)NC(=O)[C@H](CO)NC(C)=O)C(C)C)C(=O)N[C@@H](Cc1ccc(O)cc1)C(N)=O (I: Ac-SDD[Cba]EFWCHVMY-NH2 / II: Ac-SDD[Cba]EFWCHVMY-NH2; disulfide I:8-II:8), the Kd (Frizzled-7 [1]) is reported as 9.7 ×10⁻³ /s, the Kd (Frizzled-7 [2]) is reported as 20.3 nM and the Ka (Frizzled-7 [3]) is reported as 4.6 ×10⁵ /M/s.
